Source: patent US20240166589A1, “METHOD FOR PRODUCING FORM-II TYPE REDUCED COENZYME Q10 CRYSTAL OR CRYSTALLINE SOLID OF SAME, AND CRYSTALLIZING APPARATUS” (KANEKA CORPORATION, priority 2021, published 2024)

What was measured:
[1] = Oxidation stability (relative percentage of QH) after open storage in a constant temperature bath, HPLC; type: physicochemical; conditions: open system, 1 month, relative to initial reduced coenzyme Q10 content as 100; for Relative percentage of QH (25° C., 1M): 25° C. and RH 60%; for Relative percentage of QH (40° C., 1M): 40° C. and RH 75%
Description: The oxidation stability of the reduced coenzyme Q10 crystals obtained in Examples was evaluated by the following method.
The reduced coenzyme Q10 crystals obtained in Examples were stored in an open system for one month in a constant temperature bath set at 40° C. and RH (relative humidity) of 75% and at 25° C. and RH of 60% and then subjected to high-performance liquid chromatography to calculate the content ratio of reduced coenzyme Q10 (QH) and oxidized coenzyme Q10.
The oxidation stability of reduced coenzyme Q10 crystal was calculated as a relative percentage of QH by the following formula based on the relative value with the content of reduced coenzyme Q10 for the initial reduced coenzyme Q10 crystal before storage in a constant temperature bath, i.e., the content of reduced coenzyme Q10 when measured using the crystals obtained in Examples immediately after obtaining the crystals, as 100.
Relative percentage of QH (%)=Content of reduced coenzyme Q10 after storage/Content of initial reduced coenzyme Q10×100
Conditions for the high performance liquid chromatography, by which the reduced coenzyme Q10 concentration and the oxidized coenzyme Q10 concentration were measured, are shown below.
• Column: SYMMETRY C18 (manufactured by Waters); 250 mm (length), 4.6 mm (inner diameter) • Mobile phase: C2H5OH:CH3OH=4:3 (v:v) • Detection wavelength: 210 nm • Flow rate: 1 ml/min

[2] = reported in Patent Literature 4; cited from earlier work
[3] = Saturation concentration in an alcohol; type: physicochemical

SMILES: COc1c(O)c(C)c(C/C=C(\C)CC/C=C(\C)CC/C=C(\C)CC/C=C(\C)CC/C=C(\C)CC/C=C(\C)CC/C=C(\C)CC/C=C(\C)CC/C=C(\C)CCC=C(C)C)c(O)c1OC [Example 1, reduced coenzyme Q10]
- Relative percentage of QH (25° C., 1M) [1]: 91.8%
- Relative percentage of QH (40° C., 1M) [1]: 88.1%

SMILES: COc1c(O)c(C)c(C/C=C(\C)CC/C=C(\C)CC/C=C(\C)CC/C=C(\C)CC/C=C(\C)CC/C=C(\C)CC/C=C(\C)CC/C=C(\C)CC/C=C(\C)CCC=C(C)C)c(O)c1OC [Example 2, reduced coenzyme Q10]
- Relative percentage of QH (25° C., 1M) [1]: 85.1%
- Relative percentage of QH (40° C., 1M) [1]: 81.4%

SMILES: COc1c(O)c(C)c(C/C=C(\C)CC/C=C(\C)CC/C=C(\C)CC/C=C(\C)CC/C=C(\C)CC/C=C(\C)CC/C=C(\C)CC/C=C(\C)CC/C=C(\C)CCC=C(C)C)c(O)c1OC [Example 3, reduced coenzyme Q10]
- Relative percentage of QH (25° C., 1M) [1]: 89.4%
- Relative percentage of QH (40° C., 1M) [1]: 87.3%

SMILES: COc1c(O)c(C)c(C/C=C(\C)CC/C=C(\C)CC/C=C(\C)CC/C=C(\C)CC/C=C(\C)CC/C=C(\C)CC/C=C(\C)CC/C=C(\C)CC/C=C(\C)CCC=C(C)C)c(O)c1OC [Example 4, reduced coenzyme Q10]
- Relative percentage of QH (25° C., 1M) [1]: 92.2%
- Relative percentage of QH (40° C., 1M) [1]: 90.1%

SMILES: COc1c(O)c(C)c(C/C=C(\C)CC/C=C(\C)CC/C=C(\C)CC/C=C(\C)CC/C=C(\C)CC/C=C(\C)CC/C=C(\C)CC/C=C(\C)CC/C=C(\C)CCC=C(C)C)c(O)c1OC [reduced coenzyme Q10 Form II crystal, reduced coenzyme Q10]
- stability compared with reduced coenzyme Q10 Form I crystal [2]: much more stable
- saturation concentration compared with Form I crystal [3]: lower than the saturation concentration of a Form I crystal
